The source made the active and inactive calls. The rule behind the calls is not given here.
Experiments:
Mus musculus [1] = assay: Induction of lymphopenia in 129/SvEvBrd x C57BL/6 hybrid mouse assessed as change in circulating lymphocyte level at 100 mg/kg, po administered as single dose after 18 hrs by complete blood count analysis relative to control; format: functional
[2] = (§1) AUC (0 to infinity) in 129/SvEvBrd x C57BL/6 hybrid mouse at 10 mg/kg, po; format: ADME, organism-based, Plasma; design: time infinity, dose 10 mg/kg, route oral; settings: 129/SvEvBrd x C57BL/6 hybrid, plasma
[3] = Permeability across human Caco-2 cell membrane at 20 uM; format: ADME, cell-based; settings: read-out: permeability
[4] = Clearance in 129/SvEvBrd x C57BL/6 hybrid mouse at 1 mg/kg, iv; format: ADME, organism-based; design: dose 1 mg/kg, route intravenous; settings: in vivo
[5] = Half life in 129/SvEvBrd x C57BL/6 hybrid mouse; format: ADME, organism-based; settings: in vivo
[6] = (§2) Oral bioavailability in 129/SvEvBrd x C57BL/6 hybrid mouse at 1 mg/kg, iv and 10 mg/kg, po; format: ADME, organism-based; settings: 129/SvEvBrd x C57BL/6 hybrid, in vivo
Mus musculus [7] = assay: Induction of lymphopenia in 129/SvEvBrd x C57BL/6 hybrid mouse assessed as reduction in lymphocyte level from peripheral circulation at 10 mg/kg by complete blood count analysis; format: functional; design: scale not given: the % may be the effect or the level left
Mus musculus [8] = assay: Induction of lymphopenia in 129/SvEvBrd x C57BL/6 hybrid mouse assessed as change in circulating lymphocyte level at 30 mg/kg, po administered as single dose after 18 hrs by complete blood count analysis relative to control; format: functional
Mus musculus [9] = assay: as §1; format: ADME, organism-based, Plasma; design: time infinity, dose 10 mg/kg, route oral; settings: in vivo
Mus musculus [10] = assay: as §2; format: ADME, organism-based; settings: in vivo
[11] = Cmax in 129/SvEvBrd x C57BL/6 hybrid mouse at 100 mg/kg, po; format: ADME, organism-based; design: dose 100 mg/kg, route oral; settings: in vivo
[12] = AUC in 129/SvEvBrd x C57BL/6 hybrid mouse at 100 mg/kg, po; format: ADME, organism-based; design: dose 100 mg/kg, route oral; settings: plasma
[13] = target: T1, Sphingosine-1-phosphate lyase 1 (Mus musculus) (UniProt Q8R0X7); assay: Inhibition of sphingosine-1-phosphate lyase in mouse spleen assessed as production of [33P]phosphoethanolamine; format: tissue-based
T1 sequence (whole entry): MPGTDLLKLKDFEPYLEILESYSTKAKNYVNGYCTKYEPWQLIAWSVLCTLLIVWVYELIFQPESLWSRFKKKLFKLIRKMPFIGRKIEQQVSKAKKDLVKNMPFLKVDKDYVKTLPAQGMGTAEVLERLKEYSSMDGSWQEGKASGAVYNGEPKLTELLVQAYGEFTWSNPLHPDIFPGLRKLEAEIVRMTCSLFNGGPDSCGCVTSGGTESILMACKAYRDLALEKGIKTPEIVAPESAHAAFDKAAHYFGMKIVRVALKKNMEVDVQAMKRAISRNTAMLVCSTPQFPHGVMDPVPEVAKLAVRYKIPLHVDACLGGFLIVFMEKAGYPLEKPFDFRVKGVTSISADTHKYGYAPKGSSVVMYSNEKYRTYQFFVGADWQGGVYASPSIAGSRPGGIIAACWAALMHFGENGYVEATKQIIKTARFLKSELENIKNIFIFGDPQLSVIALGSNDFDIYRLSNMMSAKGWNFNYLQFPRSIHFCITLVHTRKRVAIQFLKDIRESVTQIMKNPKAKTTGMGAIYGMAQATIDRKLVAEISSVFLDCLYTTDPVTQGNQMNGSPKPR

HepG2 = assay: Increase in sphingosine-1-phosphate level in human HepG2 cells relative to control; format: functional
Mus musculus [14] = assay: Induction of lymphopenia in ip dosed 129/SvEvBrd x C57BL/6 hybrid mouse whole blood assessed as reduction in lymphocyte level by complete blood count analysis after 4 hrs; format: functional, organism-based

Row | Compound | Activity (Mus musculus [1]) [%] | AUC(0-inf) [2] [µM·h] | Papp at 20 µM [3] [×10⁻⁶ cm/s] | clearance [4] [mL/min/kg] | half-life [5] [h] | bioavailability [6] [%] | further results
1 | CC(=O)c1nc([C@@H](O)[C@H](O)[C@H](O)C(=O)N(C)C)c[nH]1 | -15 | 0.2 | 10.3 | 11.7 | 3.5 | 1 | 
2 | OC[C@@H](O)[C@@H](O)[C@H](O)c1c[nH]c(-c2cocn2)n1 | 1 | 3.4 | 0.9 | 16.6 | 1.2 |  | 
3 | CCCCCCCCc1ccc(CCC(N)(CO)CO)cc1 [FINGOLIMOD] |  |  |  |  |  |  | Activity (Mus musculus [7]): 90%
4 | Cc1scnc1-c1nc([C@@H](O)[C@H](O)[C@H](O)CO)c[nH]1 | -7 |  | 4.9 |  |  |  | 
5 | O=C(c1ccccc1)c1nc([C@@H](O)[C@H](O)[C@H](O)CO)c[nH]1 |  | 6 |  | 13.5 | 4 | 14 | Activity (Mus musculus [8]): -17%
6 | OC[C@@H](O)[C@@H](O)[C@H](O)c1c[nH]c(-c2cscn2)n1 | -33 | 5.8 |  | 12.7 | 4.2 | 12 | 
7 | OC[C@@H](O)[C@@H](O)[C@H](O)c1c[nH]c(-c2ncon2)n1 | -16 | 3.2 | 14.1 | 11.3 | 0.7 | 5 | 
8 | CC(=O)c1nc([C@@H](O)[C@H](O)[C@H](O)CO)cn1C | 10 | 41.1 | 5.57 | 5.7 | 2.4 | 33.6 | 
9 | CC(=O)c1nc([C@@H](O)[C@H](O)[C@H](O)CO)c(C)[nH]1 | -5 | 10.8 | 9.37 | 7 | 6.2 | 11 | 
10 | CC(=O)c1nc([C@@H](O)[C@@H](O)[C@H](O)CO)c[nH]1 | -31 | 15.7 | 9.9 | 18.8 | 5.4 | 25 | 
11 | CO[C@H](c1c[nH]c(C(C)=O)n1)[C@H](O)[C@H](O)CO | 16 | 42.7 |  | 6.8 | 3.3 | 42 | 
12 | CC(=O)c1cccc([C@@H](O)[C@H](O)[C@H](O)CO)n1 | 45 | 43.4 | 13.4 | 14 | 2.1 | 88 | 
13 | OC[C@@H](O)[C@@H](O)[C@H](O)c1c[nH]c(-c2ncccn2)n1 | -26 | 3 | 10.9 | 15.2 | 2.4 | 7 | 
14 | OC[C@@H](O)[C@@H](O)[C@H](O)c1c[nH]c(C(F)(F)C(F)(F)F)n1 |  |  |  |  | 1.7 |  | AUC (Mus musculus [9]): 10 µM·h; F (Mus musculus [10]): 31%; Activity (Mus musculus [8]): -11%
15 | CCCCCCCCCCCC/C=C/C[C@@H](O)[C@H](CO)NCc1c(CO)cnc(C)c1O |  |  |  |  |  |  | Cmax [11]: < 1000 nM; AUC [12]: < 1 µM·h; Activity [13]: inactive; Activity (HepG2): 275%; Activity (Mus musculus [14]): Non-toxic
16 | CC(=O)c1nc([C@H](O)[C@@H](O)[C@@H](O)CO)c[nH]1 | 0 | 18 | 13.1 | 6.7 | 6 | 17 | 
17 | CC(=O)c1nc([C@@H](O)[C@H](O)[C@H](O)CO)c(-c2ccccc2)[nH]1 | 40 | 11.5 | 3.11 | 23.9 | 1.9 | 49.6 | 
18 | OC[C@@H](O)[C@@H](O)[C@H](O)c1c[nH]c(-c2ncc[nH]2)n1 | -53 | 5.9 | 25.9 | 31.5 | 3.2 | 28 | 
19 | CC(=O)N/N=C(\C)c1nc([C@@H](O)[C@H](O)[C@H](O)CO)c[nH]1 |  | 3.6 | 9 | 8.9 | 2.6 | 5 | Activity (Mus musculus [8]): -41%
20 | OC[C@@H](O)[C@@H](O)[C@H](O)c1c[nH]c(-c2nc[nH]n2)n1 | 7 |  | 1 |  |  |  | 
21 | CN(C)C(=O)c1nc([C@@H](O)[C@H](O)[C@H](O)CO)c[nH]1 |  |  | 9.9 |  | 4 |  | AUC (Mus musculus [9]): 6.7 µM·h; F (Mus musculus [10]): 5%; Activity (Mus musculus [8]): -11%
22 | OC[C@@H](O)[C@@H](O)[C@H](O)c1c[nH]c(-c2cnccn2)n1 | -6 | 4.7 | 19.8 | 13.4 | 1.9 | 10 | 
23 | Cc1nc(-c2nc([C@@H](O)[C@H](O)[C@H](O)CO)c[nH]2)cs1 | 0 | 6.9 | 19.9 | 19.4 | 2.1 | 23 | 
24 | Cn1cnc(-c2nc([C@@H](O)[C@H](O)[C@H](O)CO)c[nH]2)c1 | -5 | 2.6 | 26.2 | 9.1 | 1.6 | 3 | 
25 | CCc1[nH]c(C(C)=O)nc1[C@@H](O)[C@H](O)[C@H](O)CO | 8 | 6.4 | 7.93 | 17.3 | 2.8 | 17.1 | 
26 | OC[C@@H](O)[C@@H](O)[C@H](O)c1c[nH]c(-c2ncn(Cc3ccccc3)n2)n1 | -41 | 1.7 | 5.1 | 16.4 | 2.4 | 6 | 
27 | CC(=O)c1ncc([C@@H](O)[C@H](O)[C@H](O)CO)s1 | 25 |  | 13.9 |  | 0.9 |  | AUC (Mus musculus [9]): 2.7 µM·h; F (Mus musculus [10]): 65%
28 | CC(O)c1nc([C@@H](O)[C@H](O)[C@H](O)CO)c[nH]1 (stereo not given in full) | -15 |  | 4.1 |  | 4.4 |  | AUC (Mus musculus [9]): 44.5 µM·h; F (Mus musculus [10]): 22%

Reference: ChEMBL document CHEMBL1137009, “Inhibition of sphingosine-1-phosphate lyase for the treatment of autoimmune disorders” (J Med Chem, 2009)
